The test system of test [1] is H460 cells. The test is described as follows: Clonogenic survival after ionizing radiation, H460. The class given is cell-based, human. The settings on record: H460-NRF2 shRNA cells. As to the method:
(§1) Clonogenic assays: Exponentially growing cells were counted, diluted and seeded in triplicate at 1000 cells per culture dish (100 mm). Cells were incubated for 24 h in a humidified CO2 incubator at 37° C., exposed to high dose rate (0.68Gy/min) radiation using a Gamma cell 40 ^137Cs irradiator (Atomic Energy of Canada, Ltd). To assess clonogenic survival following radiation exposure, cell cultures were incubated in complete growth medium at 37° C. for 14 days and then stained with 50% methanol-crystal violet solution. Only colonies with more than 50 cells were counted, and the surviving fraction was calculated and compared to the control.

The subject of test [2] is ROS. The test is described as follows: Measurement of ROS levels (c-H2DCFDA, flow cytometry). The format is cell-based, human. The conditions noted are these: NAC for 30 mins. Here is the method:
Measurement of ROS levels: Cells were incubated with 10 μM c-H2DCFDA (molecular probes, Invitrogen, CA) for 30 mins at 37° C. to assess the ROS mediated oxidation to the fluorescent compound c-H2DCF. Fluorescence of oxidized c-H2DCF was measured at an excitation wavelength of 480 nm and an emission wavelength of 525 nm using a FAC Scan flow cytometer (Becton Dickinson).
(Flow cytometry measures light scatter and fluorescence of single cells or particles in a stream.)

In test [3] the test system is A549 cells. Description: Clonogenic survival after ionizing radiation, A549. The settings on record: A549-NRF2 shRNA cells. The class given is cell-based, human. Here is the method:
as §1

The test system of test [4] is A549-C8-luc cells. Description: Orthotopic A549-C8-luc lung tumor model, inhaled siRNA with or without carboplatin. The conditions noted are these: carboplatin 30 mg/kg i.p. twice/week, 4 weeks. The class given is in vivo, SCID-Beige mice. Here is the method:
Experimental Lung Metastasis: In experimental metastasis experiments, 2×10^6 A549-C8-luc cells were injected into SCID-Beige mice (Charles River, Mass.) intravenously. For delivery of siRNA into lung tumors, 100 μg of siRNA duplex diluted in PBS was aerosolized using a nebulizer. Mice were given three doses of siRNA (100 μg/dose) every week, for 4 weeks, using a nebulizer. Intraperitoneal injections of carboplatin were given at a dose of 30 mg/kg body weight twice/week. All experimental animal protocols were performed in accordance with guidelines approved by the animal care committee at the Johns Hopkins University Bloomberg School of Public Health.
In Vivo Imaging: For luminescent imaging, animals inoculated with A549-C8-luc cells, which express a luciferase reporter gene, were anesthetized and injected intraperitoneally with 250 ul of luminescent substrate (15 mg/ml stock) D-Luciferin Firefly (Xenogen Cat# XR-1001). The animals were then imaged and analyzed by using the Xenogen IVIS Optical Imaging Device in the Johns Hopkins Oncology Center.

In test [5] the test system is A549 cells. The test is described as follows: A549 subcutaneous tumor xenograft, intratumoral siRNA with or without carboplatin/radiation. The format is in vivo, athymic nude mice. As to the method:
Tumor Xenografts and siRNA Treatment: We injected A549 cells (5×10^6) and H460 cells (2×10^6) subcutaneously into the hind leg of male athymic nude mice and measured the tumor dimensions by caliper once per week. The tumor volumes were calculated using the following formula: [length (mm)×width (mm)×width (mm)×0.52]. For in vivo delivery of siRNA into tumors, siRNA duplexes diluted in PBS were injected into the tumors using insulin syringes at a concentration of 10 μg of siRNA/50 mm^3 of tumor volume. Intraperitoneal injections of carboplatin were given at a dose of 40 mg/kg body weight. Both siRNA and carboplatin were administered twice weekly for 4 weeks. Upon termination, tumors were harvested and weighted. For radiation exposure, mice with subcutaneous tumors were exposed to high dose rate radiation (2 dose of 3Gy each) using a Gamma cell 40 ^137Cs irradiator (Atomic Energy of Canada, Ltd).
Statistical Analysis—Statistical comparisons were performed by Student's t-tests or Wilcoxon rank-sum test. A value of p<0.05 was considered statistically significant. Tumor weights and changes in tumor volume were summarized using descriptive statistics. Differences in tumor measures between treatment groups were examined using linear regression models with generalized estimating equations (GEE). The distributions of both tumor measurements were skewed, so log transformations were used.

Turning to `CC(=O)N[C@@H](CS)C(=O)O` [NAC, N-acetyl cysteine], the “cell survival after radiation with NAC pretreatment” value in test [1] and in test [3] was “significantly increased cell survival” in each case. Moreover, the entries for the “reduction of ROS production / mean fluorescent intensity” value in test [2] (A549-NRF2shRNA cells) and in test [2] (H460-NRF2shRNA cells) were 85% and 75%, respectively.
For the compound `N.N.O=C([O-])C1(C(=O)[O-])CCC1.[Pt+2]` [carboplatin], the “ratio of lung weights, siRNA vs siRNA+carboplatin treated tumors” value in test [4] is given as 1.73. For the same compound, in test [5] (experiment 1), the “ratio of differences in change in tumor volume, siRNA+carboplatin vs siRNA” value is reported as 0.45. Moreover, the “ratio of tumor weights, siRNA vs siRNA+carboplatin treated tumors” value in test [5] (experiment 1, carboplatin 40 mg/kg i.p. twice weekly) was determined as 2.13. Moreover, the “ratio of differences in change in tumor volume, siRNA+carboplatin vs siRNA+radiation” value in test [5] (experiment 1, not significant) worked out at 0.77. Besides, the “ratio of tumor weights, siRNA+carboplatin vs siRNA treated tumors” value in test [5] (second experiment) is 0.55.

For the origin of these results see patent US20100255117A1, “METHODS AND COMPOSITIONS FOR THE TREATMENT OF CANCER” (The Johns Hopkins University, priority 2007, published 2010).
